Data taken from PMC4266920, “Exploring the correlation between the sequence composition of the nucleotide binding G5 loop of the FeoB GTPase domain (NFeoB) and intrinsic rate of GDP release” (Bioscience Reports, 2014).

Tests used:
Format in all cases: binding
[1] = molecular target: T1, EcNFeoB (GTPase domain of Escherichia coli FeoB) (Escherichia coli, UniProt P33650, T151A); assay: isothermal titration calorimetry, one-site model; details: read-out: Kd^** (μM) GDP
T1 construct: soluble N-terminal GTPase domain, residues 1-270; GST fusion (pGEX-4T-1) in E. coli BL21(DE3), GST removed by thrombin, size exclusion; an alternate S150A-TEV construct (TEV-cleaved) was also made
T1 sequence (P33650 1-270 T151A): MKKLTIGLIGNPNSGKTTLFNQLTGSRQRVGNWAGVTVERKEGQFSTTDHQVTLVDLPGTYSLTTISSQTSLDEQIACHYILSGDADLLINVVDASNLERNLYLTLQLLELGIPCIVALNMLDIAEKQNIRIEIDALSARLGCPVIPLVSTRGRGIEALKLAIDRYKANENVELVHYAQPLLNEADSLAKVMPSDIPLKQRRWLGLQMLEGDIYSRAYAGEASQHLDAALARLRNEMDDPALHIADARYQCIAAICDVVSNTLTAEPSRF
Description: (§1) isothermal titration calorimetry, one-site model on EcNFeoB (GTPase domain of Escherichia coli FeoB)

[2] = molecular target: T2, EcNFeoB (GTPase domain of Escherichia coli FeoB) (Escherichia coli, UniProt P33650, S150A); assay: isothermal titration calorimetry, one-site model; details: read-out: Kd^** (μM) GDP
T2 construct: soluble N-terminal GTPase domain, residues 1-270; GST fusion (pGEX-4T-1) in E. coli BL21(DE3), GST removed by thrombin, size exclusion; an alternate S150A-TEV construct (TEV-cleaved) was also made
T2 sequence (P33650 1-270 S150A): T1 sequence (P33650 1-270 T151A)
Description: as §1

[3] = molecular target: T3, EcNFeoB (GTPase domain of Escherichia coli FeoB) (Escherichia coli, UniProt P33650, R154A); assay: isothermal titration calorimetry, one-site model; details: read-out: Kd^** (μM) GDP
T3 construct: soluble N-terminal GTPase domain, residues 1-270; GST fusion (pGEX-4T-1) in E. coli BL21(DE3), GST removed by thrombin, size exclusion; an alternate S150A-TEV construct (TEV-cleaved) was also made
T3 sequence (P33650 1-270 R154A): T1 sequence (P33650 1-270 T151A)
Description: as §1

[4] = molecular target: T4, EcNFeoB (GTPase domain of Escherichia coli FeoB) (Escherichia coli, UniProt P33650, R152A); assay: isothermal titration calorimetry, one-site model; details: read-out: Kd^** (μM) GDP
T4 construct: soluble N-terminal GTPase domain, residues 1-270; GST fusion (pGEX-4T-1) in E. coli BL21(DE3), GST removed by thrombin, size exclusion; an alternate S150A-TEV construct (TEV-cleaved) was also made
T4 sequence (P33650 1-270 R152A): T1 sequence (P33650 1-270 T151A)
Description: as §1

[5] = molecular target: T5, EcNFeoB (GTPase domain of Escherichia coli FeoB) (Escherichia coli, UniProt P33650, G153A); assay: isothermal titration calorimetry, one-site model; details: read-out: Kd^** (μM) GDP
T5 construct: soluble N-terminal GTPase domain, residues 1-270; GST fusion (pGEX-4T-1) in E. coli BL21(DE3), GST removed by thrombin, size exclusion; an alternate S150A-TEV construct (TEV-cleaved) was also made
T5 sequence (P33650 1-270 G153A): T1 sequence (P33650 1-270 T151A)
Description: as §1

[6] = molecular target: T1, EcNFeoB (GTPase domain of Escherichia coli FeoB); assay: stopped-flow fluorescence, koff/kon from kobs versus protein concentration; details: 20 mM Tris pH 8.0, 100 mM NaCl, 100 mM MgCl2, 20 °C; labelled compound (mant-GMPPNP; table heading prints GMPPNP)
Description: (§2) stopped-flow fluorescence, koff/kon from kobs versus protein concentration on EcNFeoB (GTPase domain of Escherichia coli FeoB)

[7] = molecular target: T3, EcNFeoB (GTPase domain of Escherichia coli FeoB); assay: as above; details: 20 mM Tris pH 8.0, 100 mM NaCl, 100 mM MgCl2, 20 °C; labelled compound (mant-GMPPNP; table heading prints GMPPNP)
Description: as §2

[8] = molecular target: T4, EcNFeoB (GTPase domain of Escherichia coli FeoB); assay: as above; details: 20 mM Tris pH 8.0, 100 mM NaCl, 100 mM MgCl2, 20 °C; labelled compound (mant-GMPPNP; table heading prints GMPPNP)
Description: as §2

[9] = molecular target: T5, EcNFeoB (GTPase domain of Escherichia coli FeoB); assay: as above; details: 20 mM Tris pH 8.0, 100 mM NaCl, 100 mM MgCl2, 20 °C; labelled compound (mant-GMPPNP; table heading prints GMPPNP)
Description: as §2

Molecule | Kd [1] [µM] | Kd [2] [µM] | Kd [3] [µM] | Kd [4] [µM] | Kd [5] [µM] | Kd [6] [µM] | Kd [7] [µM] | Kd [8] [µM] | Kd [9] [µM]
Nc1nc2c(ncn2[C@@H]2O[C@H](COP(=O)(O)OP(=O)(O)O)[C@@H](O)[C@H]2O)c(=O)[nH]1 [GDP] | 33 ± 4 | 2 ± 0.3 | 9 ± 2 | 8 ± 1 | 11 ± 2 |  |  |  | 
mant-GMPPNP |  |  |  |  |  | 27 | 43 | 23 | 17
